Measurements: ChEMBL document CHEMBL1201862, “PubChem BioAssay data set” (2004)
The source made the active and inactive calls.

Legend:
Paired box protein Pax-8 = Paired box protein Pax-8 (Homo sapiens, UniProt Q06710); assay: PAX8 transcriptional activity inhibition in RMG-I – RMG-I cells, luciferase, cherry-pick, dose response (AID 687027); assay type: functional, cell-based;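 note: luciferase reporter driven by Pax8 target thyroperoxidase promoter measured by SteadyGlo luminescence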
[1] = target: T1, Rac GTPase-activating protein 1 (Homo sapiens, UniProt Q9H0H5); assay: blockers of MgcRacGAP-driven Rac1 GTP hydrolysis – biochemical, ADP Hunter fluorescence, primary and confirmatory, confirmation (AID 624330); assay type: functional
T1 sequence (Q9H0H5 whole entry): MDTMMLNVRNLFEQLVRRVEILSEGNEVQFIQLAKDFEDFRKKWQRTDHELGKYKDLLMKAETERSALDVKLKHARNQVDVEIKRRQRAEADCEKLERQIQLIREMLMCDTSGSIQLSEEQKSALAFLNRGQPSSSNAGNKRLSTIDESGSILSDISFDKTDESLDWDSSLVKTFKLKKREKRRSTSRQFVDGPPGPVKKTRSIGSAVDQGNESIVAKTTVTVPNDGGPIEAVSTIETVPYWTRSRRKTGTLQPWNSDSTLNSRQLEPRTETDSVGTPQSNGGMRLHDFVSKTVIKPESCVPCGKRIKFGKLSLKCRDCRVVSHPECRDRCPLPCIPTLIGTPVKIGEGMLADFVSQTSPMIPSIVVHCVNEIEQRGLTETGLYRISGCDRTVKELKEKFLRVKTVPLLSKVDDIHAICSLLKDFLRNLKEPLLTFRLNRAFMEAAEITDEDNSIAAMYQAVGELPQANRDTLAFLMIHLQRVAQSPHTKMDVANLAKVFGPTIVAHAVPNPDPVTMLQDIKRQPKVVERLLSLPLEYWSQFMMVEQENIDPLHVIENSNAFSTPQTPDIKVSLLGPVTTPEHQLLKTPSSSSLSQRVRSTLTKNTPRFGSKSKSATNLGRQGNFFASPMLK

[2] = target: T2, Calpain-2 catalytic subunit (Sus scrofa, UniProt P43367); assay: m-calpain protease blockers, concentration series – biochemical, fluorogenic peptide substrate, dose response (AID 1420); assay type: functional
T2 sequence (P43367 whole entry): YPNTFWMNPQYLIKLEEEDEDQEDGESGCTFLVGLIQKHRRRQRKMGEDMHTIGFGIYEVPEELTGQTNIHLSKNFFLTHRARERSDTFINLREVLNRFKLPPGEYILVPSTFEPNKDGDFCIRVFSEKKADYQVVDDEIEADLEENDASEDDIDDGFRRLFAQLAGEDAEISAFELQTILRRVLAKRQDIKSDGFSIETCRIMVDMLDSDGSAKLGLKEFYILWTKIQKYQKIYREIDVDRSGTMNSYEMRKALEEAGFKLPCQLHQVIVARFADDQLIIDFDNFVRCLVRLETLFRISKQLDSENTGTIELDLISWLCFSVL

Protein RecA = target: T3, Protein RecA (Mycobacterium tuberculosis, UniProt P9WHJ3); assay: Fluorescence Cell-Free Homogeneous Dose Retest to Identify Inhibitors of RecA-Intein Splicing Activity. [Related pubchem assays (depositor defined):AID2097, AID2223, AID489010, AID492950]; assay type: functional
T3 sequence (P9WHJ3 whole entry): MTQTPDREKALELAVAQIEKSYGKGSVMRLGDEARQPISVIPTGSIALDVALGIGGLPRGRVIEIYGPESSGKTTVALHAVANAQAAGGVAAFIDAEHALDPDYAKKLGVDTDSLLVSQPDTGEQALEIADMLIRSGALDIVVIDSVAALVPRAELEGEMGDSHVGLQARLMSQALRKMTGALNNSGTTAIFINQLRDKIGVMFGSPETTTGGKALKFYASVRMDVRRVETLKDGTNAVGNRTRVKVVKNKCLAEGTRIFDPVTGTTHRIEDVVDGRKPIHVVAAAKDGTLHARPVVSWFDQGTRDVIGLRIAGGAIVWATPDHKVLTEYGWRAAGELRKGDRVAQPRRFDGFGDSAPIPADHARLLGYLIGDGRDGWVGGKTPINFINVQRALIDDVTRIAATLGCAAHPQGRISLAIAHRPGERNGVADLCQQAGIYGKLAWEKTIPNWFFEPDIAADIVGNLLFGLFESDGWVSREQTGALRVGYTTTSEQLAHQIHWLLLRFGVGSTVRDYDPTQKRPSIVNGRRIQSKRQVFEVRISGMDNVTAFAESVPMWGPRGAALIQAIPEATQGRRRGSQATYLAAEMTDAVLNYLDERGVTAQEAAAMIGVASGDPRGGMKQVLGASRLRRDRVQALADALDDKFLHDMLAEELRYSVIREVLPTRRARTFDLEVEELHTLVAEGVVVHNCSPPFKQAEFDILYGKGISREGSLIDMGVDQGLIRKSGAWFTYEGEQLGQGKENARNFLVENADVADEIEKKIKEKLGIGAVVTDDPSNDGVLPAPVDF

[3] = target: T4, Replicative DNA helicase DnaB (Mycobacterium tuberculosis, UniProt P9WMR3); assay: DnaB intein splicing inhibitors, dose response, biochemical, cell-free fluorescence (AID 449749); assay type: functional
T4 sequence (P9WMR3 whole entry): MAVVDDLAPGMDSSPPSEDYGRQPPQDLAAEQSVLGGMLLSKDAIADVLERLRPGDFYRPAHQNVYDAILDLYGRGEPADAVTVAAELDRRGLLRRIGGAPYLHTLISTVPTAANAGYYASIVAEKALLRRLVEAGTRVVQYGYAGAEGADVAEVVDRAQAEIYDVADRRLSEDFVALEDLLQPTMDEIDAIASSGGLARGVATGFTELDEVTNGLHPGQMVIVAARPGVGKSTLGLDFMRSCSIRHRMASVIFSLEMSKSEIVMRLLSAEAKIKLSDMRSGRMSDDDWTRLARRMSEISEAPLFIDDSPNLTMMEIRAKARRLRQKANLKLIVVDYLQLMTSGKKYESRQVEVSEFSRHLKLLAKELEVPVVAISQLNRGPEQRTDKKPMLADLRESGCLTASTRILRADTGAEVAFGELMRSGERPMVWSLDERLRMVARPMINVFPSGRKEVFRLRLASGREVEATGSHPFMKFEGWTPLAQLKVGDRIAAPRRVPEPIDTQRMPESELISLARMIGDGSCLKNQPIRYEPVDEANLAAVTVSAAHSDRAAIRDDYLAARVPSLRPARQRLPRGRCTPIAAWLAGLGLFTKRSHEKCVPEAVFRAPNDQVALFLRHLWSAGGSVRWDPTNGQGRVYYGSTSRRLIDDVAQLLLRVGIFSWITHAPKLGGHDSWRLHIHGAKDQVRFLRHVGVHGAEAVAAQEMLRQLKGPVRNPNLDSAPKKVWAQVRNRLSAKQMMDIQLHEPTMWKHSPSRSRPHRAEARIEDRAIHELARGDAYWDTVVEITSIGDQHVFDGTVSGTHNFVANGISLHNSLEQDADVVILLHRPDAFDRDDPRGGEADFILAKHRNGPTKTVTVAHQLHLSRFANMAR

INS1 = assay: INS-1E survival protection against cytokine death – cell-based, luminescence, retest, dose response (AID 449756); assay type: functional; settings: Rattus norvegicus;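 note: cell death triggered by IL-1 beta plus TNF-alpha plus IFN-gamma mixture; protective hits raise ATP signal compared with cytokine alone wells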
Streptokinase A = target: T5, Streptokinase A (Streptococcus pyogenes serotype M1, UniProt P10520); assay: viability-normalized secreted streptokinase activity reduction – plasminogen activation absorbance, OD405, dose response (AID 1914); assay type: functional, Streptococcus pyogenes M1 GAS;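 note: secreted streptokinase activity via plasminogen activation per viability signal from cell pellet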
T5 sequence (P10520 whole entry): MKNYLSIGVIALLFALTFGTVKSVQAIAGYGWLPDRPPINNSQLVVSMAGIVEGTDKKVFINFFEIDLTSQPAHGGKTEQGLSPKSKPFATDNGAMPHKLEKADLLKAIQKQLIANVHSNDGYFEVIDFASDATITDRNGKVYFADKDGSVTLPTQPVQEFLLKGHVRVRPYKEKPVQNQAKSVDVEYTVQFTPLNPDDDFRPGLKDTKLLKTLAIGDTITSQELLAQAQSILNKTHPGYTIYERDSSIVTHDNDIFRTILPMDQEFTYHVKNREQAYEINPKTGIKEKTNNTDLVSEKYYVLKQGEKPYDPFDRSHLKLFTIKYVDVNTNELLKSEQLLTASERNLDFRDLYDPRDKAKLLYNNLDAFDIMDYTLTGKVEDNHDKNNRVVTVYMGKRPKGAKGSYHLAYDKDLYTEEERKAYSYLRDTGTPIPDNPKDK

[4] = test system: Streptococcus sp. 'group A'; assay: Streptococcus pyogenes SK(-)GAS viability under kanamycin – luminescence, BacTiterGlo, confirmation, counter-screen for streptokinase expression inhibitor project, dose response (AID 1900); assay type: functional, organism-based
Streptococcus = assay: GAS UMAA2166 growth inhibition – luminescence, BacTiterGlo, counter-screen for streptokinase expression inhibitor project, dose response (AID 1915); assay type: functional, organism-based;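 note: potency for reduction of bacterial viability or growth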
[5] = microbe, parasite or virus in culture; assay type: functional; settings: Mycobacterium tuberculosis

Chain of Paired box protein Pax-8 (Q06710 whole entry): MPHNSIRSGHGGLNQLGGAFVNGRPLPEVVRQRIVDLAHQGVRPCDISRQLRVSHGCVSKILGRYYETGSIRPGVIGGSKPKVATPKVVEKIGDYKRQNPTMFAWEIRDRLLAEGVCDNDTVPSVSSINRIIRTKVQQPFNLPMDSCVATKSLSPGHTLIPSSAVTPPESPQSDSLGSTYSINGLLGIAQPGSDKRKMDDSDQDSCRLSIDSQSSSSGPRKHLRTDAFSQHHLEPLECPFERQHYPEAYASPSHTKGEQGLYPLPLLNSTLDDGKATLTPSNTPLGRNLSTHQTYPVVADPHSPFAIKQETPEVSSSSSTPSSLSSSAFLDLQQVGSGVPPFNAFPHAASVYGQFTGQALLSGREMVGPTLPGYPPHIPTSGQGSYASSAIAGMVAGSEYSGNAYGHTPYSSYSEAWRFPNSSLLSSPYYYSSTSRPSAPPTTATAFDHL

C[C@@H]1CN([C@@H](C)CO)C(=O)c2cc(NC(=O)Nc3ccc4c(c3)OCO4)ccc2O[C@@H]1CN(C)C(=O)Nc1ccc(C(F)(F)F)cc1
AC50 (Paired box protein Pax-8): 11.1 µM (active)

O=C(CN1CCN(Cc2ccccc2)CC1)NC(c1ccccc1)c1ccccc1
IC50 [1]: 77.1 µM (active)

CCOc1ccc(NC(=NCc2ccc3c(c2)OCO3)SC2CC(=O)N(c3ccccc3)C2=O)cc1 (stereo not drawn)
IC50 [2]: > 50 µM (not active)

COc1ccc(/C=C2/C(=O)N(Cc3ccccc3)N=C2C)cc1
EC50 (Protein RecA): 1.91 µM (active) | AC50 [3]: 4.12 µM (active)

COc1ccc(CN2CCN(CCSc3ccc(C)cc3)CC2)c(OC)c1OC
IC50 [1]: 80 µM (active) | AC50 (INS1): > 260 µM (inactive)

Cc1ccc(NC(=O)NN(C)c2c(Cl)c(Cl)nn2C)cc1
IC50 [2]: > 50 µM (not active)

O=C1CC/[N+](=C\c2ccc(Cl)cc2)[N-]1
EC50 (Protein RecA): 3.64 µM (active) | AC50 [3]: 150 µM (active)

O=C(OCc1nnn(Cc2ccccc2)c1-c1c(COC(=O)c2ccccc2)nnn1Cc1ccccc1)c1ccccc1
IC50 [2]: 2.52 µM (not active)

Cn1c(N)c(C(=O)COC(=O)C23CC4CC(CC(C4)C2)C3)c(=O)n(C)c1=O
IC50 [2]: 2.26 µM (active)

CCCCn1c(=O)c(C(=O)NCc2ccccc2Cl)c(O)c2ccccc21
EC50 (Streptokinase A): 5.97 µM (inconclusive) | EC50 [4]: 54.8 µM (active) | EC50 (Streptococcus): > 150 µM (not active)

CN1CCN(CCc2nc3cc(NC(=O)c4ccco4)ccc3n2C)CC1
IC50 [2]: > 50 µM (not active)

COc1ccccc1/N=C1\C(Cl)=C(O)OC1OC(=O)c1ccco1 (stereo not drawn)
EC50 (Protein RecA): 13.4 µM (active) | AC50 [3]: 12.5 µM (active)

COc1ccc(C2c3ccc(O)cc3Oc3ncn4nc(-c5ccncc5)nc4c32)cc1OC (stereo not drawn)
EC50 (Streptokinase A): > 150 µM (not active) | EC50 [4]: 4.67 µM (active) | EC50 (Streptococcus): 27.9 µM (active)

CCc1ccc2nc(N3C(=O)C(O)=C(C(=O)c4ccco4)C3c3cccs3)sc2c1 (stereo not drawn)
EC50 (Streptokinase A): > 150 µM (not active) | EC50 [4]: 2.2 µM (active) | EC50 (Streptococcus): 7.12 µM (active) | CC50 [5]: > 40 µM (active)

O=C(COC(=O)c1ccco1)Nc1cccc(S(=O)(=O)N2CCOCC2)c1
AC50 (Paired box protein Pax-8): 62.1 µM (active)

O=C(NC(=S)N1CCN(c2ccc(F)cc2)CC1)C12CC3CC(CC(C3)C1)C2
EC50 (Streptokinase A): > 150 µM (not active) | EC50 [4]: 29.7 µM (active) | EC50 (Streptococcus): > 150 µM (not active)

CCN=C(S)Nc1cc2oc3ccccc3c2cc1OC
IC50 [1]: 99.9 µM (active)

O=C1CC(c2cccnc2)=NN1c1ccccc1
EC50 (Protein RecA): 13.9 µM (active) | AC50 [3]: 3.7 µM (active)

Brc1ccc(OCCCN2CCOCC2)cc1
IC50 [1]: 123 µM (active)

CCC(C)(C)NC(=O)c1ccc(S(=O)(=O)N2CCCCCC2)cc1
IC50 [2]: 22.9 µM (not active)

COc1cc(/C=C/C(=O)OCC(=O)Nc2cc(S(=O)(=O)N3CCCCC3)ccc2C)ccc1O
IC50 [1]: 68.1 µM (active)

CC(C)c1ccc(C(=O)NC(=S)NCc2cccnc2)cc1
IC50 [2]: 27 µM (not active)

CS(=O)(=O)Nc1ccc(C(=O)Nc2ccccc2C(=O)NCc2ccco2)cc1
EC50 (Streptokinase A): > 150 µM (not active) | EC50 [4]: > 150 µM (not active) | EC50 (Streptococcus): > 150 µM (not active)

Cc1ccc(CN=C(S)Nc2ccc(NS(=O)(=O)c3ccc(C)cc3)cc2)cc1
EC50 (Streptokinase A): > 150 µM (not active) | EC50 [4]: 9.78 µM (active) | EC50 (Streptococcus): 17.6 µM (active)

CCOc1cc(C(c2c(C)n[nH]c2O)c2c(C)n[nH]c2O)ccc1OCc1ccc([N+](=O)[O-])cc1
EC50 (Protein RecA): 0.159 µM (active) | AC50 [3]: 0.281 µM (active)

COc1ccc(-c2cc(CNC(=O)CCl)on2)cc1
EC50 (Protein RecA): 17.7 µM (active) | AC50 [3]: 262 µM (active)

CN(c1ccccc1)c1ccc([N+](=O)[O-])c2nonc12
EC50 (Protein RecA): 5.22 µM (active) | AC50 [3]: 74.7 µM (active)

Cc1ccc(Oc2ccc3c(c2)C(=O)N(c2ccc(S(=O)(=O)Nc4nccs4)cc2)C3=O)cc1
EC50 (Streptokinase A): > 150 µM (not active) | EC50 [4]: 9.43 µM (active) | EC50 (Streptococcus): 20 µM (active)

CC(NS(=O)(=O)/C=C/c1ccccc1)C(=O)O (stereo not drawn)
EC50 (Streptokinase A): > 150 µM (not active) | EC50 [4]: > 150 µM (not active) | EC50 (Streptococcus): > 150 µM (not active)

COC(=O)c1ccc(/C=N/NS(=O)(=O)c2cc(C)ccc2C)cc1
IC50 [2]: 6.58 µM (not active)

Cc1ccc(C2=NN=C(NC(=O)CSc3nncn3C)SC2)cc1
IC50 [1]: 256 µM (active)

CC(CCc1ccccc1)NC(=O)/C=C/c1ccc(F)cc1 (stereo not drawn)
IC50 [2]: 27.6 µM (not active)

COCc1nc2ccccc2n1Cc1ccc(Br)cc1
IC50 [2]: 8.1 µM (not active)
